Experiments:
[1] = system: differentiated 3T3-L1 adipocytes; assay: Adipokine antibody array on conditioned media; assay type: cell-based, murine; details: 72 hr treatment, media conditioned 24 hr
Description: Adipokine Antibody Array: 3T3-L1 cells were differentiated and treated with or without AZD3965 for 72 hr. After this incubation, media was replenished, and adipocytes were cultured for an additional 24 hr to allow for adipokine secretion and media conditioning. Media was collected and analyzed for adipokine secretion with the Proteome Profiler Mouse Adipokine Array Kit (R&D Systems) according to the manufacturer's instructions. Chemiluminescence was detected with the LI-COR Odyssey® XF Imaging System with a 2 minute exposure time. Positive signals were quantified using Image Studio™ (LI-COR Biosciences) to quantify signal intensity. Data presented represent signal intensity normalized by the signal intensity of reference antibodies within the array.

[2] = system: differentiated 3T3-L1 cells; assay: RT-qPCR of mRNA levels in differentiated adipocytes; assay type: cell-based, murine
Description: RT-qPCR: RNA was harvested from preadipocytes using the RNeasy® Plus Mini Kit as per manufacturer's recommendations (Qiagen). For differentiated adipocytes, RNA was collected and isolated using TRIzol (Thermo Fisher Scientific) according to the manufacturer's instructions. Quantification of RNA was performed using the Nanodrop 1000 Spectrophotometer. RNA (2 μg) was reverse transcribed using Superscript III First Strand synthesis kit (Invitrogen). RT-qPCR detection with SYBR green was performed with the resulting cDNA and a 50/50 forward primer: reverse primer ratio using the QuantStudio™ 5 (Applied Biosystems™). Oligonucleotide primer sequences used in this study can be found in the table below.

[3] = differentiated adipocytes, 1 μM, 24 hr
[4] = mature adipocytes, 24 hr treatment

Cc1[nH]nc(C(F)(F)F)c1Cc1sc2c(c1C(=O)N1C[C@](C)(O)CO1)c(=O)n(C)c(=O)n2C(C)C [AZD3965, 5-[[(4S)-4-hydroxy-4-methyl-2-isoxazolidinyl]carbonyl]-3-methyl-1-(1-methylethyl)-6-[[5-methyl-3-(trifluoromethyl)-1H-pyrazol-4-yl]methyl]-thieno[2,3-d]pyrimidine-2,4 (1H, 3H)-dione]
adipokine levels in conditioned media [1]: no significant differences
CDK1 mRNA level [2, 3]: significant upregulation
Cyclin B mRNA level [2, 3]: significant upregulation
PLK1 mRNA level [2, 3]: significant upregulation
TOP2A mRNA level [2, 3]: significant upregulation
FABP4 mRNA levels [2, 4]: significantly increased
HSL mRNA levels [2, 4]: significantly decreased
PPARγ transcript levels [2, 4]: significant decrease
